Reference: article PMC8286840, “Identifying SARS-CoV-2 antiviral compounds by screening for small molecule inhibitors of Nsp3 papain-like protease” (Biochemical Journal, 2021)
Counter-ions that a name gives are not always drawn. Like-named read-outs stand apart in the source and are kept apart here.

Legend:
[1] = target: T1, SARS-CoV-2 PLpro (nsp3 1564–1878) (Severe acute respiratory syndrome coronavirus 2, UniProt P0DTD1); assay: biochemical; design: FRET-quenched peptide (Pro3) cleavage by PLpro, 10 min pre-incubation, slope over 20 min, normalised to no-compound control; conditions: high concentration screen, read-out: % of control remaining
[2] = target: T1, SARS-CoV-2 PLpro (nsp3 1564–1878); assay: biochemical; design: FRET-quenched peptide (Pro3) cleavage by PLpro, 10 min pre-incubation, slope over 20 min, normalised to no-compound control; conditions: low concentration screen, read-out: % of control remaining

CC1(C)CCC=[N+]1[O-] [5,5-Dimethyl-1-pyrroline-N-oxide]
remaining activity at 3.75 µM ([1]; Well no.=501): 97.1% | remaining activity at 1.25 µM ([2]; Well no.=501): 97%

O=C1NC(=O)C(c2ccccc2)(c2ccccc2)N1 [5,5-Diphenylhydantoin]
remaining activity at 3.75 µM ([1]; Well no.=641): 98.3% | remaining activity at 1.25 µM ([2]; Well no.=641): 99.8%

COc1cc(/C=C/c2ccccc2)oc(=O)c1 [5,6-Dehydrokawain]
remaining activity at 3.75 µM ([1]; Well no.=3559): 103% | remaining activity at 1.25 µM ([2]; Well no.=3559): 105%

CCCCC/C=C\C/C=C\C/C=C\C[C@H]1O[C@H]1CCCC(=O)O [5,6-Epoxyeicosatrienoic acid]
remaining activity at 3.75 µM ([1]; Well no.=4383): 103% | remaining activity at 1.25 µM ([2]; Well no.=4383): 105%

O=C(O)c1cc(=O)c2c(Cl)cc(Cl)cc2[nH]1 [5,7-Dichlorokynurenic acid]
remaining activity at 3.75 µM ([1]; Well no.=546): 97.5% | remaining activity at 1.25 µM ([2]; Well no.=546): 95.2%

COc1c(O)cc2oc(-c3ccc(O)cc3)cc(=O)c2c1O [5,7-dihydroxy-2-(4-hydroxyphenyl)-6-methoxy-4H-chromen-4-one]
remaining activity at 3.75 µM ([1]; Well no.=5542): 102% | remaining activity at 1.25 µM ([2]; Well no.=5542): 101%

CCCCCC#CCC#CCC#CCC#CCCCC(=O)O [5,8,11,14-Eicosatetraynoic acid]
remaining activity at 3.75 µM ([1]; Well no.=4472): 97.4% | remaining activity at 1.25 µM ([2]; Well no.=4472): 98.7%

CCCCCCCCC#CCC#CCC#CCCCC(=O)O [5,8,11-Eicosatriynoic acid]
remaining activity at 3.75 µM ([1]; Well no.=411): 97.5% | remaining activity at 3.75 µM ([1]; Well no.=4470): 92.3% | remaining activity at 1.25 µM ([2]; Well no.=411): 101% | remaining activity at 1.25 µM ([2]; Well no.=4470): 96.8%

CN(C)C(=O)Oc1cc(OC(=O)N(C)C)cc(C(O)CNC(C)(C)C)c1 (stereo not drawn) [5-(2-(tert-butylamino)-1-hydroxyethyl)-1,3-phenylene bis(dimethylcarbamate) hydrochloride]
remaining activity at 3.75 µM ([1]; Well no.=5871): 103% | remaining activity at 1.25 µM ([2]; Well no.=5871): 104%

O=C1OC(CN2CCOCC2)CN1/N=C/c1ccc([N+](=O)[O-])o1 (stereo not drawn) [5-(4-morpholinylmethyl)-3-{[(E)-(5-nitro-2-furyl)methylidene]amino}-1,3-oxazolidin-2-one]
remaining activity at 3.75 µM ([1]; Well no.=6079): 98.7% | remaining activity at 1.25 µM ([2]; Well no.=6079): 99.9%

c1cc(-c2cnn3cc(-c4ccc(N5CCNCC5)cc4)cnc23)c2cccnc2c1 [5-(6-(4-(piperazin-1-yl)phenyl)pyrazolo[1,5-a]pyrimidin-3-yl)quinoline]
remaining activity at 3.75 µM ([1]; Well no.=6009): 101% | remaining activity at 1.25 µM ([2]; Well no.=6009): 104%

FC(F)(F)c1ccc(CNc2ccc(Cc3c[nH]c4ncccc34)cn2)cc1 [5-((1H-pyrrolo[2,3-b]pyridin-3-yl)methyl)-N-(4-(trifluoromethyl)benzyl)pyridin-2-amine]
remaining activity at 3.75 µM ([1]; Well no.=6012): 102% | remaining activity at 1.25 µM ([2]; Well no.=6012): 104%

CN(C)c1nc(N)c(C(=O)NC(=N)N)nc1Cl [5-(N,N-Dimethyl)amiloride hydrochloride]
remaining activity at 3.75 µM ([1]; Well no.=63): 99% | remaining activity at 1.25 µM ([2]; Well no.=63): 102%

NC(N)=NC(=O)c1nc(Cl)c(N2CCCCCC2)nc1N [5-(N,N-hexamethylene)amiloride]
remaining activity at 3.75 µM ([1]; Well no.=106): 104% | remaining activity at 1.25 µM ([2]; Well no.=106): 104%

CCN(c1nc(N)c(C(=O)NC(=N)N)nc1Cl)C(C)C [5-(N-Ethyl-N-isopropyl)amiloride]
remaining activity at 3.75 µM ([1]; Well no.=203): 97.3% | remaining activity at 1.25 µM ([2]; Well no.=203): 99.7%

CC(C)CN(C)c1nc(N)c(C(=O)N=C(N)N)nc1Cl [5-(N-Methyl-N-isobutyl)amiloride]
remaining activity at 3.75 µM ([1]; Well no.=209): 100% | remaining activity at 1.25 µM ([2]; Well no.=209): 99.9%

O=C1NC(=O)C(Cc2ccc3cc(OCc4ccccc4F)ccc3c2)S1 (stereo not drawn) [5-({6-[(2-fluorobenzyl)oxy]-2-naphthyl}methyl)-1,3-thiazolidine-2,4-dione]
remaining activity at 3.75 µM ([1]; Well no.=5872): 97.8% | remaining activity at 1.25 µM ([2]; Well no.=5872): 104%

NC(=O)c1[nH]cnc1N [5-Amino-3H-imidazole-4-Carboxamide]
remaining activity at 3.75 µM ([1]; Well no.=7449): 104% | remaining activity at 1.25 µM ([2]; Well no.=7449): 103%

Nc1ccc(O)c(C(=O)O)c1 [5-Aminosalicylic acid]
remaining activity at 3.75 µM ([1]; Well no.=2121): 104% | remaining activity at 1.25 µM ([2]; Well no.=2121): 105%

NCCCCC(=O)O [5-Aminovaleric acid hydrochloride]
remaining activity at 3.75 µM ([1]; Well no.=147): 101% | remaining activity at 1.25 µM ([2]; Well no.=147): 103%

O=c1[nH]c(=O)n([C@H]2C[C@H](O)[C@@H](CO)O2)cc1Br [5-BrdU]
remaining activity at 3.75 µM ([1]; Well no.=7862): 97.6% | remaining activity at 1.25 µM ([2]; Well no.=7862): 96%

O=c1[nH]c(=O)n([C@H]2C[C@H](O)[C@@H](CO)O2)cc1Br [5-Bromo-2'-deoxyuridine]
remaining activity at 3.75 µM ([1]; Well no.=269): 98.4% | remaining activity at 1.25 µM ([2]; Well no.=269): 95.6%

NCCc1c[nH]c2ccc(C(N)=O)cc12 [5-Carboxamidotryptamine maleate]
remaining activity at 3.75 µM ([1]; Well no.=533): 104% | remaining activity at 1.25 µM ([2]; Well no.=533): 104%

O=c1[nH]c(=O)n([C@H]2C[C@H](O)[C@@H](CO)O2)cc1Cl [5-Chloro-2'-deoxyuridine]
remaining activity at 3.75 µM ([1]; Well no.=7814): 102% | remaining activity at 1.25 µM ([2]; Well no.=7814): 101%

O=C(O)c1cc2cc(F)ccc2[nH]1 [5-Fluoroindole-2-carboxylic acid]
remaining activity at 3.75 µM ([1]; Well no.=339): 97.9% | remaining activity at 1.25 µM ([2]; Well no.=339): 99.4%

O=c1[nH]cc(F)c(=O)[nH]1 [5-Fluorouracil]
remaining activity at 3.75 µM ([1]; Well no.=661): 98.8% | remaining activity at 3.75 µM ([1]; Well no.=2116): 98.2% | remaining activity at 1.25 µM ([2]; Well no.=661): 97.2% | remaining activity at 1.25 µM ([2]; Well no.=2116): 95.8%

O=c1[nH]c(=O)n([C@@H]2O[C@H](CO)[C@@H](O)[C@H]2O)cc1F [5-Fluorouridine]
remaining activity at 3.75 µM ([1]; Well no.=7900): 91.5% | remaining activity at 1.25 µM ([2]; Well no.=7900): 95.4%

N[C@@H](Cc1c[nH]c2ccc(O)cc12)C(=O)O [5-Hydroxy-L-tryptophan]
remaining activity at 3.75 µM ([1]; Well no.=712): 98.5% | remaining activity at 1.25 µM ([2]; Well no.=712): 91.8%

O=C(O)Cc1c[nH]c2ccc(O)cc12 [5-Hydroxyindolacetic acid]
remaining activity at 3.75 µM ([1]; Well no.=758): 92.8% | remaining activity at 1.25 µM ([2]; Well no.=758): 91.7%

O=C(O)Cc1c[nH]c2ccc(O)cc12 [5-Hydroxyindole-3-acetic acid]
remaining activity at 3.75 µM ([1]; Well no.=5974): 101% | remaining activity at 3.75 µM ([1]; Well no.=7351): 102% | remaining activity at 1.25 µM ([2]; Well no.=5974): 102% | remaining activity at 1.25 µM ([2]; Well no.=7351): 103%

O=C(O)c1ccc(CO)o1 [5-Hydroxymethyl-2-furancarboxylic acid]
remaining activity at 3.75 µM ([1]; Well no.=6689): 98.1% | remaining activity at 1.25 µM ([2]; Well no.=6689): 97.9%

O=c1[nH]cc(CO)c(=O)[nH]1 [5-Hydroxymethyluracil]
remaining activity at 3.75 µM ([1]; Well no.=6499): 101% | remaining activity at 1.25 µM ([2]; Well no.=6499): 99.6%

Nc1ncnc2c1c(I)cn2[C@@H]1O[C@H](CO)[C@@H](O)[C@H]1O [5-Iodotubercidin]
remaining activity at 3.75 µM ([1]; Well no.=2479): 101% | remaining activity at 1.25 µM ([2]; Well no.=2479): 100%
